Consider ten molecules from US8586620B2, “Substituted indole compounds having NOS inhibitory activity” (NeurAxon, Inc., priority 2005, dated 2013).

Series [1] addresses murine macrophage iNOS (Mus musculus (Mouse), UniProt P29477). Briefly: Murine iNOS hemoglobin capture assay. Type of series: biochemical. The source says:
(§1) The NOS isoforms used in this example were recombinant enzymes expressed in E. coli. Rat nNOS was expressed and purified as described previously (Roman et al., Proc. Natl. Acad. Sci. USA 92:8428-8432, 1995). The bovine eNOS isoform was isolated as reported (Martasek et al., Biochem. Biophys. Res. Commun. 219:259-365, 1996) and murine macrophage iNOS was expressed and isolated according to the procedure of Hevel et al. (J. Biol. Chem. 266:22789-22791, 1991). IC50 values and percent inhibition of NOS by the compounds of the invention were determined under initial velocity measurement conditions with the hemoglobin capture assay as previously described (Hevel and Marletta, Methods Enzymol. 133:250-258, 1994). In this assay, nitric oxide reacts with oxyhemoglobin to yield methemoglobin, which was detected at 401 nm (e=19,700 M^−1 cm^−1) on a Perkin-Elmer Lamda 10 UV/vis spectrophotometer. The assays were performed using varying test compound concentrations. Assay mixtures for nNOS or eNOS contained […], 1.6 mM CaCl2, 11.6 mg/mL calmodulin, […], 6.5 mM BH4 and […] in 100 mM Hepes (pH 7.5). Assay mixtures for iNOS contained 10 mM of L-arginine, […], 6.5 mM BH4 and […] in 100 mM Hepes (pH 7.5). All assays were conducted in a final volume of 600 μL and were initiated with enzyme.

The target in series [2] is bovine eNOS (Bos taurus (Bovine), UniProt P29473). Briefly: Bovine eNOS hemoglobin capture assay. Type of series: biochemical.
Text: as §1

For series [3], the target named is Rat nNOS (Rattus norvegicus (Rat), UniProt P29476). Briefly: Rat nNOS hemoglobin capture assay. Type of series: biochemical. The settings on record: Table 2a.
Text: as §1

Series [4] has as its target human inducible NOS (iNOS) (Homo sapiens (Human), UniProt P35228). Briefly: Human iNOS enzyme assay, radiometric. Type of series: biochemical. The source says:
Standard deviations were 10% or less.

For series [5], the target named is human endothelial constitutive NOS (eNOS) (Homo sapiens (Human), UniProt P29474). Briefly: Human eNOS enzyme assay, radiometric.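 Note: recombinant human eNOS expressed in baculovirus-infected Sf9 cells, activity read as [3H]L-arginine turned into [3H]L-citrulline, the product isolated on ion-exchange resin.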
Description: (§2) In a radiometric method, NO synthase activity was determined by measuring the conversion of [^3H]L-arginine to [^3H]L-citrulline.
(§3) The total volume of the reaction mixture was 150 μL in every well. […] The reaction was stopped by adding 20 μL of ice-cold buffer containing 100 mM HEPES, 3 mM EGTA, 3 mM EDTA, pH=5.5. [^3H]L-citrulline was separated by DOWEX (ion-exchange resin DOWEX 50 W X 8-400, SIGMA) and the DOWEX was removed by spinning at 12,000 g for 10 min in the centrifuge. […] All assays were performed at least in duplicate. Standard deviations were 10% or less.
The target of series [6] is human neuronal constitutive NOS (nNOS) (Homo sapiens (Human), UniProt P29475). Briefly: Human nNOS enzyme assay, radiometric [3H]L-arginine to [3H]L-citrulline.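 Note: recombinant human nNOS expressed in baculovirus-infected Sf9 cells, enzyme activity measured radiometrically as turnover of [3H]L-arginine into [3H]L-citrulline.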
Description: as §2, §3
Series [7] has as its system rat cortical neuronal cultures. Briefly: Neuroprotection of rat cortical cells against NMDA challenge. Type of series: cell-based. Conditions: 60-minute pre-incubation; 30 minutes 25 μM NMDA; propidium iodide after 24 hrs; FIG. 1. On the procedure: According to a previously reported procedure (Tremblay et al., J Neurosci. 20(19):7183-92, 2000), test compounds were added for a 60-minute pre-incubation period to rat cortical neuronal cultures, which were then exposed for 30 minutes to 25 μM NMDA in buffer. After 24 hrs cultures were treated with propidium iodide and the % cell death determined and compared to control cells.

The subject of series [8] is hindpaw allodynia. Put plainly: Experimental migraine model, inflammatory soup on dura, hindpaw allodynia.
Series [9] concerns the target 5-HT1B (Rattus norvegicus (Rat), UniProt P28564). Briefly: 5-HT1B binding assay (agonist radioligand), rat cerebral cortex. On the procedure: 5-HT1D binding assays (agonist radioligand)were performed using bovine caudate membranes according to the methods of Heuring and Peroutka (J. Neurosci 1987, 7: 894-903). 5-HT1B (rat cerebral cortex) binding assays (agonist radioligand) were performed according to the method of Hoyer et. al. (Eur. J. Pharmacol. 1995, 118: 1-12). For the purpose of result analysis, the specific ligand binding to the receptors is defined as the difference between the total binding and the nonspecific binding as determined in the presence of an excess of unlabelled ligand. The results are expressed as a percent of control specific binding obtained in the presence of the test compounds. IC50 values (concentration causing a half-maximal inhibition of control specific binding) and Hill coefficients (nH) were determined by non-linear regression analysis of the competition curves using Hill equation curve fitting and the inhibition constants (Ki) were calculated from the Cheng Prusoff equation (Ki=IC50/(1+(L/KD)), where L=concentration of radioligand in the assay, and KD=affinity of the radioligand for the receptor).

Series [10] relates to cardiogenic shock. Conditions: randomized trial of 30 patients; reduced from 67%; cited from earlier work.
Series [11] has as its system migraine. The settings on record: single i.v. administration; human migraine; cited from earlier work.
In series [12] the test system is persistent shock. The settings on record: up to 30 days; 11 patients with persistent shock; cited from earlier work.
For series [13], the system named is migraine attack. Conditions: open pilot study; cited from earlier work.
Setting [14] is: Table 2a, hemoglobin capture assay, read-out: Murine iNOS.
Where [15] appears, read: Table 2a, hemoglobin capture assay, read-out: Bovine eNOS.
The mark [16] stands for this setting: Table I, human NOS, dihydrochloride or monohydrochloride salts, read-out: iNOSh.
The mark [17] stands for this setting: read-out: eNOSh, Table I, human NOS, dihydrochloride or monohydrochloride salts.
Setting [18] is: read-out: nNOSh, Table I, human NOS, dihydrochloride or monohydrochloride salts.

Where a name gives a salt, the structure may show the parent alone. Read-outs that look alike come from different tables or passages of the source.

Sequence of 5-HT1B (P28564 whole entry): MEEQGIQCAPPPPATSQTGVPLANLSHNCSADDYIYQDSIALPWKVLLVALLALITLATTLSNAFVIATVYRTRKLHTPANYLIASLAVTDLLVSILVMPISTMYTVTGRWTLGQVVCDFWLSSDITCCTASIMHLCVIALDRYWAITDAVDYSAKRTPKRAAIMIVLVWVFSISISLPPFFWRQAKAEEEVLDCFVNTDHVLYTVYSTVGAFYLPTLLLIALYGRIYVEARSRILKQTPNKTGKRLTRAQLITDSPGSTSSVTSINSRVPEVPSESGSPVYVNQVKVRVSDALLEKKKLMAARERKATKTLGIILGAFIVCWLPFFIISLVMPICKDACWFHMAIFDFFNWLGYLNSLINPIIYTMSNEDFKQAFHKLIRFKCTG

For `CN1CCC[C@H]1CCc1c[nH]c2ccc(NC(=N)c3cccs3)cc12` (as salt: hydrochloride) [Compound 147, (R)-N-(3-(2-(1-Methylpyrrolidin-2-yl)ethyl)-1H-indol-5-yl)thiophene-2-carboximidamide], the melting point amounted to 212 °C.
Turning to `CCSC(=N)Nc1ccc2[nH]ccc2c1` [Compound 4], the results for the IC50 in series [1] (setting [14]), in series [2] (setting [15]) and in [3] were 46.9 µM, 164 µM and 29.6 µM, respectively.
With `CN(C)CCc1c[nH]c2ccc(NC(=N)c3cccs3)cc12` [Compound 18], the IC50 stood at 43.5 µM in series [1]; 12 µM in series [4] (Table 2b, read-out: Human iNOS); 12 µM in series [4] (setting [16]); 26 µM in series [5] (read-out: Human eNOS, Table 2b); 26 µM in [5] (setting [17]); 248 µM in series [2]. The IC50 came out at 2.6 µM in series [6] (read-out: Human nNOS, Table 2b); 2.6 µM in [6] (setting [18]); 3.3 µM in series [3]. Also, the e/n in [6] (Table I, ratio eNOSh/nNOSh) stood at 10. In addition, the “protection of neuronal cells from death upon NMDA challenge” value in series [7] is listed as “protected neuronal cells from death”.
Regarding `N=C(Nc1ccc2ccn(CCc3ccccc3)c2c1)c1cccs1` [Compound 27], the IC50 in [1] (setting [14]) is 159 µM; in [4] (Table 2b, read-out: Human iNOS), 320 µM; in [5] (read-out: Human eNOS, Table 2b), over 100 µM; in series [2] (setting [15]), over 300 µM; in series [6] (read-out: Human nNOS, Table 2b), 12 µM; in series [3] it was 14.6 µM.
As for `CN1CCCC1CCn1ccc2ccc(NC(=N)c3cccs3)cc21` (stereo not drawn) [Compound 32], the values for the IC50 in series [1] (setting [14]), in [2] (setting [15]) and in [3] were 67.2 µM, 6.2 µM and 4.1 µM, respectively.
For the molecule `CN1CC=C(c2c[nH]c3ccc(NC(=N)c4cccs4)cc23)CC1` [Compound 42, N-(3-(1-methyl-1,2,3,6-tetrahydropyridin-4-yl)-1H-indol-5-yl)thiophene-2-carboximidamide], the IC50 in [4] (setting [16]) came out at 20 µM; in series [5] (setting [17]) it was 51.1 µM; in series [6] (setting [18]) it was 0.92 µM; in [9], 0.16 µM. For the same molecule, the e/n in [6] worked out at 53. The “development of hindpaw allodynia” value in series [8] (6 mg/kg i.v. 10 minutes prior to IS) is listed as “prevents the development of hindpaw allodynia”.
The molecule `CCN1CCC(c2c[nH]c3ccc(NC(=N)c4cccs4)cc23)CC1` [Compound 61, N-(3-(1-ethylpiperidin-4-yl)-1H-indol-5-yl)thiophene-2-carboximidamide] showed a melting point of 150 to 152 °C.
As to `COC(=O)[C@@H](N)CCCNC(=N)N[N+](=O)[O-]` [L-NAME], the patient mortality in series [10] was 27%.
`CN=C(N)NCCC[C@H](N)C(=O)O.Cl` [L-NMMA, L-N^G methylarginine hydrochloride]: the response rate in series [11] is 67%. In addition, in [8] (10 mg/kg i.v 10 minutes prior to IS), the “development of hindpaw allodynia” value was “prevents the development of hindpaw allodynia”. In series [12], the survival rate is reported as 72%.
For `C/C1=C2/[N-][C@H]([C@H](CC(N)=O)[C@@]2(C)CCC(=O)NC[C@@H](C)OP(=O)([O-])O[C@H]2[C@@H](O)[C@@H](n3cnc4cc(C)c(C)cc43)O[C@@H]2CO)[C@]2(C)N=C(/C(C)=C3N=C(/C=C4N=C1[C@@H](CCC(N)=O)C\4(C)C)[C@@H](CCC(N)=O)[C@]\3(C)CC(N)=O)[C@@H](CCC(N)=O)[C@]2(C)CC(N)=O.[Co+3].[OH-]` [hydroxycobalamin], the “patients with reduction in the frequency of migraine attack of 50%” value in series [13] is listed as 53%.

As usually defined, the melting point is the temperature of the solid-liquid transition.
